The values that follow come from ChEMBL document CHEMBL1201862, “PubChem BioAssay data set” (2004).

Experiment in all cases: growth of human tumour cells (NCI), 48 h
Assay [1] relates to A549.
Assay [2] relates to BT-549.
Assay [3] has as its system DU-145.
Assay [4] concerns HCC 2998.
In assay [5] the test system is HCT-15.
Assay [6] relates to HL-60.
Assay [7] has as its system HOP-92.
Assay [8] has as its system M14.
In assay [9] the test system is MCF7.
For assay [10], the system named is MDA-N.
Assay [11] relates to Malme-3M.
In assay [12] the test system is NCI-H226.
For assay [13], the system named is NCI-H23.
Assay [14] deals with NCI/ADR-RES.
Assay [15] concerns RXF 393.
For assay [16], the system named is TK-10.
For assay [17], the system named is UACC-257.
Assay [18] concerns UACC-62.
In assay [19] the test system is SR.

SMILES strings stand for the structures.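 Grown in 96-well plates, cells were treated for 48 hours with each compound at five concentrations. Insufficient inhibition: endpoint recorded as highest concentration tested. Here, GI50 denotes the concentration required for 50% inhibition of growth.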 Active and inactive are the calls of the source. Rule as the data show it: active = GI50 up to about 1.1 µM and inactive = higher.

`O=C(c1ccc(Cl)cc1)N1N=C(c2ccc(Cl)cc2)CC1(O)c1cc(F)c(Cl)cc1Cl` (stereo not drawn): the GI50 in assay [1] was 19.6 µM (inactive); in assay [2], 62.2 µM (inactive); in assay [3], 27.3 µM (inactive); in assay [4], 15.5 µM (inactive); in [5], 15.5 µM; in assay [6], 21.2 µM (inactive). In addition, the GI50 in assay [7] was 11.6 µM (inactive); in [8], 28.7 µM (inactive); in [9], 7.14 µM (inactive); in [10], 13.6 µM (inactive); in assay [11], 30.6 µM (inactive); in assay [12] it was 50.6 µM (inactive). The GI50 is 12.2 µM (inactive) in assay [13]; 18.4 µM (inactive) in [14]; 23.9 µM (inactive) in [15]; 52.7 µM (inactive) in [16]; 25.7 µM (inactive) in assay [17]; 21.5 µM (inactive) in assay [18].

As for `O=c1sc2c(s1)-c1sc(=O)sc1SS2`, the GI50 in assay [1] was > 100 µM (inactive); in assay [2], > 100 µM (inactive); in assay [3] it was > 54 µM (inactive); in [4], > 100 µM (inactive); in assay [5], 18.7 µM; in [6], > 100 µM (inactive). Besides, the GI50 is > 100 µM (inactive) in assay [7]; 48.2 µM (inactive) in assay [8]; > 100 µM (inactive) in [9]; > 100 µM (inactive) in assay [10]; > 100 µM (inactive) in [11]; 38.6 µM (inactive) in [12]. Besides, the GI50 in assay [13] is > 37.5 µM (inactive); in [14], 26.7 µM (inactive); in [15] it was > 100 µM (inactive); in [16], > 52.6 µM (inactive); in [17], > 96.8 µM (inactive); in assay [18], > 100 µM (inactive).

With `COc1ccc2c(c1)CC[C@@H]1[C@@H]2CC[C@]2(C)C(=O)/C(=C/c3ccncc3)C[C@@H]12`, the GI50 in assay [1] is 30.8 µM (inactive); in [2], 67.5 µM (inactive); in assay [3] it was 38.8 µM (inactive); in [4], 27.4 µM (inactive); in assay [5], 41.4 µM; in assay [7] it was 27.9 µM (inactive). The GI50 is 31.7 µM (inactive) in assay [8]; 61.4 µM (inactive) in assay [9]; 42.6 µM (inactive) in assay [10]; 25.8 µM (inactive) in assay [11]; 63 µM (inactive) in [12]; 35.3 µM (inactive) in assay [13]. Further, the GI50 in assay [14] was 48.8 µM (inactive); in assay [15], 18.2 µM (inactive); in [19], 47.2 µM (inactive); in assay [16] it was 30.6 µM (inactive); in [17] it was 29.3 µM (inactive); in assay [18] it was 31.6 µM (inactive).

In the case of `O=C(/C(=N\Nc1ccc([N+](=O)[O-])cc1[N+](=O)[O-])NC12CC3CC(CC(C3)C1)C2)C(Br)C(=O)c1ccccc1` (stereo not drawn), the GI50 in [1] is 3.33 µM (inactive); in [2], 4.44 µM (inactive); in assay [3] it was 4.48 µM (inactive); in [4], 3.98 µM (inactive); in [5], 4.99 µM; in assay [6], 2.94 µM (inactive). The GI50 in [7] was 2.79 µM (inactive); in assay [8] it was 2.86 µM (inactive); in assay [9], 3.86 µM (inactive); in assay [10] it was 4.69 µM (inactive); in assay [11], 3.13 µM (inactive); in [12] it was 2.52 µM (inactive). In addition, the GI50 in assay [13] was 3.33 µM (inactive); in assay [14], 3.23 µM (inactive); in [15], 2.78 µM (inactive); in [16], 5.66 µM (inactive); in assay [17] it was 1.88 µM (inactive); in assay [18] it was 3.38 µM (inactive).

For `Cc1ccc2c(c1)C(=O)c1ccc(C)nc1C2=O`, the GI50 was 31.8 µM (inactive) in assay [1]; 25.6 µM (inactive) in assay [2]; 49.4 µM (inactive) in [3]; 31.3 µM (inactive) in assay [4]; 16.9 µM in assay [5]; 26.7 µM (inactive) in assay [6]. The GI50 was 31.8 µM (inactive) in assay [8]; 27.4 µM (inactive) in [9]; 16.6 µM (inactive) in assay [10]; 8.71 µM (inactive) in assay [11]; > 100 µM (inactive) in assay [12]; 18.9 µM (inactive) in assay [13]. Besides, the GI50 is 24 µM (inactive) in assay [14]; > 100 µM (inactive) in assay [15]; 34.1 µM (inactive) in assay [19]; > 100 µM (inactive) in assay [16]; 24 µM (inactive) in assay [17]; 21.9 µM (inactive) in assay [18].

Turning to `O=C1CSC(c2c[nH]c3ccccc23)N1c1cccc(Cl)c1` (stereo not drawn), the GI50 in assay [1] was 56.1 µM (inactive); in assay [2], 43.9 µM (inactive); in assay [3], > 100 µM (inactive); in assay [4], 54.3 µM (inactive); in [5] it was 40.4 µM; in assay [6], 36.6 µM (inactive). In addition, the GI50 was 60.4 µM (inactive) in assay [7]; 49.1 µM (inactive) in [8]; 39.6 µM (inactive) in assay [9]; 36.9 µM (inactive) in [10]; 66.5 µM (inactive) in assay [12]; 54 µM (inactive) in [13]. Besides, the GI50 was 36.1 µM (inactive) in [14]; > 100 µM (inactive) in assay [15]; 89.3 µM (inactive) in assay [16]; > 100 µM (inactive) in [17]; 45.8 µM (inactive) in [18].

In the case of `C=CCN1C(=O)/C(=C\c2cc(C(C)(C)C)c(O)c(C(C)(C)C)c2)NC1=S`, the GI50 in assay [1] is 24.3 µM (inactive); in assay [2] it was 33.9 µM (inactive); in assay [3] it was 21.2 µM (inactive); in assay [5], 22.2 µM; in assay [6], 0.239 µM (active); in [7] it was 28.9 µM (inactive). The GI50 is 26 µM (inactive) in assay [8]; 20.7 µM (inactive) in [9]; 27.4 µM (inactive) in assay [10]; 7.19 µM (inactive) in assay [11]; 29.3 µM (inactive) in assay [12]; 21.2 µM (inactive) in assay [13]. Also, the GI50 is 23.9 µM (inactive) in assay [14]; 21.1 µM (inactive) in assay [19]; 25 µM (inactive) in assay [16]; 15.6 µM (inactive) in assay [17]; 15.8 µM (inactive) in assay [18].

On to `COc1cc(Nc2nnc3n2S(=O)(=O)c2cc(C)c(Cl)cc2S3)cc(OC)c1`, for which the GI50 in [1] is 6.62 µM (inactive); in assay [2] it was 5.77 µM (inactive); in assay [3], 10.7 µM (inactive); in [4], 6.18 µM (inactive); in assay [5], 17.7 µM; in assay [6] it was 8.69 µM (inactive). In addition, the GI50 in [7] is 5.26 µM (inactive); in assay [8], 59.3 µM (inactive); in [9] it was 13.6 µM (inactive); in assay [10] it was 4.68 µM (inactive); in [11], 2.17 µM (inactive); in assay [12], 16.4 µM (inactive). For the same compound, the GI50 in assay [13] was 6.25 µM (inactive); in assay [14], 15.6 µM (inactive); in [15], 10.5 µM (inactive); in [16], 31.4 µM (inactive); in assay [17], 16.6 µM (inactive); in [18] it was 18.1 µM (inactive).

Consider `COC(=O)C1C/C(=C/N(C)C)C(=S)N1` (stereo not drawn), for which the GI50 is > 100 µM (inactive) in assay [1]; > 100 µM (inactive) in assay [2]; > 100 µM (inactive) in assay [3]; > 100 µM (inactive) in assay [4]; over 100 µM in assay [5]; 54.1 µM (inactive) in [7]. Moreover, the GI50 in [8], in assay [9], in [10], in [11], in assay [13] and in [14] was > 100 µM (inactive) throughout. For the same compound, the GI50 in assay [15], in [19], in assay [16], in [17] and in assay [18] was > 100 µM (inactive) in each case.

`COc1cc(C2SCCCCCCCCCCSC(c3ccc(O)c(OC)c3)SCCCCCCCCCCS2)ccc1O` (stereo not drawn): the GI50 was > 100 µM (inactive) in assay [1]; > 100 µM (inactive) in assay [2]; > 100 µM (inactive) in [3]; over 100 µM in assay [5]; > 100 µM (inactive) in [7]; > 100 µM (inactive) in assay [8]. For the same compound, the GI50 in assay [9] is > 100 µM (inactive); in [10] it was > 100 µM (inactive); in assay [11] it was 58.1 µM (inactive); in [12], > 100 µM (inactive); in assay [13], > 100 µM (inactive); in assay [14], > 100 µM (inactive). The GI50 is > 100 µM (inactive) in assay [15]; 56.1 µM (inactive) in assay [19]; > 100 µM (inactive) in assay [16]; > 100 µM (inactive) in assay [17]; > 100 µM (inactive) in [18].

Take `CC(=O)C1C(=O)C(=O)N(c2ccc(Br)cc2)C1=O` (stereo not drawn): the GI50 in [1] was > 100 µM (inactive); in assay [2], > 100 µM (inactive); in assay [3], > 100 µM (inactive); in assay [4], > 100 µM (inactive); in [5] it was over 100 µM; in [6] it was > 100 µM (inactive). Besides, the GI50 in assay [7], in [8], in [9], in assay [10], in assay [12] and in [13] was > 100 µM (inactive) throughout. Further, the GI50 in assay [14], in [15], in [16], in [17] and in assay [18] was > 100 µM (inactive) throughout.
